Data taken from ChEMBL document CHEMBL1201862, “PubChem BioAssay data set” (2004).
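Following 48 hours of exposure in 96-well plates, responses at five concentrations were used to interpolate endpoints linearly. Abbreviation: GI50, concentration required for 50% inhibition of growth.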 Activity calls are given as the source filed them. Cut-off read from the data, not from the text of the source: active = GI50 up to about 1.1 µM and inactive = higher.

What was measured:
Test in all cases: NCI-60 cell line screen, 48 h
NCI-H522 = test system: NCI-H522
PC-3 = test system: PC-3
KM12 = test system: KM12
HOP-62 = test system: HOP-62
MDA-MB-231 = test system: MDA-MB-231
K562 = test system: K562
A549 = test system: A549
NCI-H226 = test system: NCI-H226
LOX IMVI = test system: LOX IMVI
CCRF-CEM = test system: CCRF-CEM
MCF7 = test system: MCF7
SK-MEL-5 = test system: SK-MEL-5
HCT-15 = test system: HCT-15
UO-31 = test system: UO-31
UACC-257 = test system: UACC-257
OVCAR-8 = test system: OVCAR-8
OVCAR-4 = test system: OVCAR-4
Hs-578T = test system: Hs-578T
SW-620 = test system: SW-620
NCI-H460 = test system: NCI-H460
SR = test system: SR
786-0 = test system: 786-0
T47D = test system: T47D
EKVX = test system: EKVX
MDA-N = test system: MDA-N
UACC-62 = test system: UACC-62
IGROV-1 = test system: IGROV-1
SF-539 = test system: SF-539
COLO 205 = test system: COLO 205
SK-OV-3 = test system: SK-OV-3
SK-MEL-2 = test system: SK-MEL-2
SNB-75 = test system: SNB-75
TK-10 = test system: TK-10
OVCAR-3 = test system: OVCAR-3
HCT-116 = test system: HCT-116
OVCAR-5 = test system: OVCAR-5
ACHN = test system: ACHN
SNB-19 = test system: SNB-19
RPMI-8226 = test system: RPMI-8226
U-251 = test system: U-251
SK-MEL-28 = test system: SK-MEL-28
SF-268 = test system: SF-268
DU-145 = test system: DU-145
HT-29 = test system: HT-29
SN12C = test system: SN12C
HCC 2998 = test system: HCC 2998
MDA-MB-435 = test system: MDA-MB-435
SF-295 = test system: SF-295
MOLT-4 = test system: MOLT-4
CAKI-1 = test system: CAKI-1
RXF 393 = test system: RXF 393
NCI-H23 = test system: NCI-H23
NCI/ADR-RES = test system: NCI/ADR-RES
A498 = test system: A498
HL-60 = test system: HL-60
Malme-3M = test system: Malme-3M
HOP-92 = test system: HOP-92
M14 = test system: M14

O=C(c1ccccc1)c1ccc(COc2ccc(C(c3c(O)c4ccccc4oc3=O)c3c(O)c4ccccc4oc3=O)cc2)cc1
GI50 (NCI-H522): 18.2 µM (inactive)
GI50 (PC-3): 18.3 µM (inactive)
GI50 (KM12): 16.1 µM (inactive)
GI50 (HOP-62): 20.5 µM (inactive)
GI50 (MDA-MB-231): 34.3 µM (inactive)
GI50 (K562): 19.9 µM (inactive)
GI50 (A549): 26.2 µM (inactive)
GI50 (NCI-H226): 0.173 µM (active)
GI50 (LOX IMVI): 23.9 µM (inactive)
GI50 (CCRF-CEM): 3.84 µM (inactive)
GI50 (MCF7): 27.8 µM (inactive)
GI50 (SK-MEL-5): 18.8 µM (inactive)
GI50 (HCT-15): 37.3 µM
GI50 (UO-31): 27.7 µM (inactive)
GI50 (UACC-257): 19.4 µM (inactive)
GI50 (OVCAR-8): 17.2 µM (inactive)
GI50 (OVCAR-4): 30.2 µM (inactive)
GI50 (Hs-578T): 29.4 µM (inactive)
GI50 (SW-620): 25.7 µM (inactive)
GI50 (NCI-H460): 19.9 µM (inactive)
GI50 (SR): 35.9 µM (inactive)
GI50 (786-0): 23.6 µM (inactive)
GI50 (T47D): 20.5 µM (inactive)
GI50 (EKVX): 19.8 µM (inactive)
GI50 (MDA-N): 26.5 µM (inactive)
GI50 (UACC-62): 14 µM (inactive)
GI50 (IGROV-1): 13.5 µM (inactive)
GI50 (SF-539): 23.9 µM (inactive)
GI50 (COLO 205): 20.2 µM (inactive)
GI50 (SK-OV-3): 19.2 µM (inactive)
GI50 (SK-MEL-2): 18.2 µM (inactive)
GI50 (SNB-75): 18.5 µM (inactive)
GI50 (TK-10): 17.1 µM (inactive)
GI50 (OVCAR-3): 18.9 µM (inactive)
GI50 (HCT-116): 33.3 µM (inactive)
GI50 (OVCAR-5): 18.9 µM (inactive)
GI50 (ACHN): 19.3 µM (inactive)
GI50 (SNB-19): 23.4 µM (inactive)
GI50 (RPMI-8226): 12.5 µM (inactive)
GI50 (U-251): 89.3 µM (inactive)
GI50 (SK-MEL-28): 17.9 µM (inactive)
GI50 (SF-268): 31.9 µM (inactive)
GI50 (DU-145): 59.8 µM (inactive)
GI50 (HT-29): 18.3 µM (inactive)
GI50 (SN12C): 43.8 µM (inactive)
GI50 (HCC 2998): 18.5 µM (inactive)
GI50 (MDA-MB-435): 20.2 µM (inactive)
GI50 (SF-295): 19.4 µM (inactive)
GI50 (MOLT-4): 18.7 µM (inactive)
GI50 (CAKI-1): 22.8 µM (inactive)
GI50 (RXF 393): 19 µM (inactive)
GI50 (NCI-H23): 17.4 µM (inactive)
GI50 (NCI/ADR-RES): 19.5 µM (inactive)

CC(=O)Nc1cc(C(=O)Nc2cc(C(=O)Nc3cc(C(=O)Nc4cc(C(=O)Nc5cc(C(=O)NCCC(=O)NCCCN(C)C)n(C)c5)n(C)c4)n(C)c3)n(C)c2)n(C)c1
GI50 (NCI-H522): 17.9 µM (inactive)
GI50 (PC-3): > 100 µM (inactive)
GI50 (KM12): 23.6 µM (inactive)
GI50 (A498): > 100 µM (inactive)
GI50 (HOP-62): > 100 µM (inactive)
GI50 (MDA-MB-231): > 100 µM (inactive)
GI50 (K562): 58.7 µM (inactive)
GI50 (A549): > 100 µM (inactive)
GI50 (NCI-H226): > 100 µM (inactive)
GI50 (LOX IMVI): 37.4 µM (inactive)
GI50 (CCRF-CEM): 27.8 µM (inactive)
GI50 (MCF7): 28.2 µM (inactive)
GI50 (SK-MEL-5): > 100 µM (inactive)
GI50 (HCT-15): > 100 µM
GI50 (UO-31): > 100 µM (inactive)
GI50 (UACC-257): 76.2 µM (inactive)
GI50 (OVCAR-8): > 100 µM (inactive)
GI50 (OVCAR-4): > 100 µM (inactive)
GI50 (Hs-578T): 34.2 µM (inactive)
GI50 (SW-620): 69.5 µM (inactive)
GI50 (NCI-H460): > 100 µM (inactive)
GI50 (HL-60): 41.2 µM (inactive)
GI50 (786-0): 63.7 µM (inactive)
GI50 (T47D): 31.5 µM (inactive)
GI50 (EKVX): > 100 µM (inactive)
GI50 (MDA-N): 34.9 µM (inactive)
GI50 (IGROV-1): > 100 µM (inactive)
GI50 (SF-539): 44.5 µM (inactive)
GI50 (COLO 205): 46.8 µM (inactive)
GI50 (Malme-3M): 27.5 µM (inactive)
GI50 (SK-OV-3): > 100 µM (inactive)
GI50 (SK-MEL-2): > 100 µM (inactive)
GI50 (SNB-75): > 100 µM (inactive)
GI50 (TK-10): > 100 µM (inactive)
GI50 (OVCAR-3): > 100 µM (inactive)
GI50 (HCT-116): 37.3 µM (inactive)
GI50 (OVCAR-5): > 100 µM (inactive)
GI50 (ACHN): > 100 µM (inactive)
GI50 (SNB-19): > 100 µM (inactive)
GI50 (RPMI-8226): > 100 µM (inactive)
GI50 (U-251): 67.9 µM (inactive)
GI50 (SK-MEL-28): 67.6 µM (inactive)
GI50 (SF-268): 71.3 µM (inactive)
GI50 (DU-145): > 100 µM (inactive)
GI50 (HT-29): > 100 µM (inactive)
GI50 (SN12C): > 100 µM (inactive)
GI50 (HCC 2998): 50.4 µM (inactive)
GI50 (MDA-MB-435): 36.8 µM (inactive)
GI50 (SF-295): > 100 µM (inactive)
GI50 (MOLT-4): 38.9 µM (inactive)
GI50 (CAKI-1): 19.5 µM (inactive)
GI50 (RXF 393): > 100 µM (inactive)
GI50 (NCI-H23): > 100 µM (inactive)
GI50 (HOP-92): 33.5 µM (inactive)
GI50 (NCI/ADR-RES): > 100 µM (inactive)
GI50 (M14): > 100 µM (inactive)
